US12600716B2 (Gannex Pharma Co., Ltd., priority 2020, dated 2026)
Where two headings read alike, the source gives them in different places.

Columns and labels:
hFXR-LBD-GAL4 = molecular target: T1, hFXR-LBD-GAL4 (Homo sapiens, UniProt Q96RI1); test: FXR agonist transactivation ability: luciferase reporter gene in HEK293T; assay type: cell-based; conditions: read-out: Cell activity
T1 construct: GAL4 (fusion partner); host or cells: HEK293T
T1 sequence (Q96RI1 262-486 limits assumed): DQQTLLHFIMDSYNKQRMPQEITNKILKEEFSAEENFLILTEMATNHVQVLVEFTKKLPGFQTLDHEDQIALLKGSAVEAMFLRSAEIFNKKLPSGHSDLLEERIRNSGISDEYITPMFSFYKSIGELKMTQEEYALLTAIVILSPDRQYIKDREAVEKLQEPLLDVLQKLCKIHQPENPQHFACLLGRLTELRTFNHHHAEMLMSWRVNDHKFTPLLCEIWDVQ
Procedure: FXR Agonist Transactivation Ability
Evaluation of the ability of the compound of the present invention to promote FXR transactivation was conducted by using luciferase reporter gene expression technology.
• 1. Cell line: HEK293T (Invitrogen) • 2. Expression plasmid: pBIND-hFXR-LBD-GAL4 (Promega), pGL4.35-luciferase (Promega) • 3. Cell culture medium: 10% serum and penicillin/streptomycin double antibody in DMEM medium • 4. Detection reagent: Steady-Glo fluorescence detection system (Promega). • 5. Transfection reagent: TransIT-293 Transfection Reagent (MIRUS BIO)
• 1. The compound was prepared into a 10 mM DMSO stock solution and stored in a −20° C. refrigerator for a long time. • 2. Resuscitation HEK293T cells were seeded in 10 cm culture dishes at a concentration of 5.5×10^6 and incubated for 16 hours at 37° C. in a 5% CO2 incubator. • 3. Return the transfection reagent to room temperature before transfection. The Trans-IT solution was added dropwise to Opti-MEM, and mixed by inversion for 5 minutes; the expression plasmid was added, mixed by inversion, and incubated at room temperature for 20 minutes. • 4. Add the transfection mixture from Step 3 to the prepared 10 cm dish in Step 2 and incubate for 5-6 hours in a 5% CO2 incubator. • 5. Dilute the compound 3 folds to 10 concentration points using DMSO; add 25 nl of compound per well in a 384-well plate using an Echo 550 sonic pipette; add HEK293T cells to the 384-well plate at a concentration of 15,000 cells/well; 37° C. incubate for 16-20 hours in a 5% CO2 incubator. • 6. Add 25 μl of Steady-Glo Fluorescent Reagent to each well and read the fluorescence on an Envision 2104 plate reader. • 7. Calculate the EC50 value of the activation of the compound.

human FXR protein = molecular target: T2, human FXR protein (Homo sapiens, UniProt Q96RI1); test: FXR agonist binding ability: time-resolved fluorescence (LanthaScreen) FXR/coactivator assay; assay type: biochemical; conditions: GST-labeled human FXR, fluorescein-labeled coactivator, TR-FRET
T2 construct: purchased Invitrogen
Procedure: FXR Agonist Binding Ability Evaluation of the activation effect of the compound of the present invention with regard to the binding of FXR to its co-stimulatory factor SRC-1 was conducted by using time-resolved analytical techniques. Protein: glutathione-S-transferase (GST)-labeled human FXR protein (Invitrogen) • 2. Coactivator: Fluorescein-labeled steroid receptor coactivator (SRC2-2) (Invitrogen) • 3. Detection reagent: LanthaScreen Time-Resolved Fluorescence Analysis Kit (Invitrogen) • 1. The compound was prepared into a 10 mM DMSO stock solution and stored in a −20° C. refrigerator for a long time. • 2. The compound was diluted to 1 mM before the experiment, and then the compound was diluted 3-fold to 10 concentration points using DMSO. Then use buffer G (Invitrogen, PV4553) to dilute these 10 concentration points by 50 times to become a working fluid. Add 10 μl of each working solution to each well of a 384-well plate. • 3. Prepare a human FXR protein solution (final concentration 20 nM) in chilled buffer G and add 5 μl of human FXR protein solution to each well of a 384-well plate. • 4. Prepare a mix of buffer G containing 2 μM fluorescein-labeled steroid receptor coactivator and 20 nM GST antibody. • 5. Add 5 μl of the mixture prepared in Step 4 to a 384-well plate. • 6. Centrifuge the 384-well plate at 1000 g for 1 minute. • 7. Incubate for 1 hour at room temperature in the dark. • 8. Read the 384-well plate at 520 nm and 495 nm on an Envision 2104 plate reader. • 9. Calculate the EC50 value of the activation effect of the compound.

[1] = Mouse pharmacokinetic studies (IV and PO); assay type: in vivo, Male CD-1 mice; conditions: for PO F: PO 10 mg/kg vs IV 2.0 mg/kg; for Vd / AUC(0-t) / clearance / half-life / Cmax / Tmax: male, CD-1, plasma; for clearance: read-out: IV Cl; for half-life: read-out: IV T½ (converted)
Procedure: Mouse Pharmacokinetic Studies
Typical PK study procedure. For i.v. PK studies, a group of three fasted Male CD-1 mice were dosed with the compound (2.0 mg/kg, 0.50 mg/mL in 5% solutol in saline, clear solution), and 0.02 mL blood was collected at 0.0830, 0.250, 0.500, 1.00, 2.00, 4.00, 8.00, 24.0 h. For PO PK studies, a group of three fasted Male CD-1 mice were dosed with the compound (10 mg/kg, 1 mg/mL in 5% solutol in saline, clear solution), and 0.02 mL blood was collected at 0.250, 0.500, 1.00, 2.00, 4.00, 6.00, 8.00, 24.0 h. The blood was collected into EP tubes (containing EDTA K20.85-1.15 mg) and centrifuged at 3,000 g or 3,200 g at 4° C. for 10 min) and plasma was isolated and divided into two vials. One was used for bioanalysis and one was kept as backup. The samples were kept at −60° C. or below, until being analyzed by LC MS/MS. The samples were analyzed with AB SCIEX INSTRUMENTS LC-MS/MS AU-Triple Quad 6500 Plus and data were processed with Phoenix WinNonlin 6.3 (IV-noncompartmental model and PO-noncompartmental model).

[2] = system: STZ+DEN+HFD induced NASH model; test: STZ+DEN+HFD induced NASH model in mice; assay type: in vivo, male C57BL/6 mice; conditions: 30 mg/kg PO QD 7 weeks
Procedure: Therapeutic efficacy of FXR compounds was evaluated in STZ+DEN+HFD induced NASH model in male C57BL/6 mice. Briefly, newborn male C57BL/6 mice were injected with streptozocin (STZ) at Week 2 to introduce diabetes and diethylnitrosamine (DEN) at Week 4 to promote liver fibrosis. Mice receiving neither STZ nor DEN were used as negative control (Group 1, n=12) and were fed with normal diet. At Week 6, 60 diabetic mice were selected (blood glucose>12 mmol/L after 6 h of fasting) and were fed with high fat diet (HFD, diet that contains 60 kcal % fat). After one week on HFD, animals were randomly assigned into 5 groups based on body weight: Group 2 (n=12), disease model group, no compound treatment; Group 3 (n=10), positive control group, treated with OCA (30 mg/kg); Group 4 (n=12), treated with Compound 1 (3 mg/kg); Group 5 (n=12), treated with Compound 1 (10 mg/kg); Group 6 (n=12), treated with Compound 1 (30 mg/kg). OCA and Compounds 1 were PO QD, for 7 weeks. On the day after last dose, all animals were euthanized and liver tissues were fixed with formalin for pathological evaluation.

[3] = system: DEN+HFD+CHOL induced NASH model; test: DEN+HFD+CHOL induced NASH model in rats; assay type: in vivo, male SD rats; conditions: 30 mg/kg PO QD 7 weeks; p<0.001
Procedure: Therapeutic efficacy of FXR compounds was evaluated in DEN+HFD+CHOL induced NASH model in male SD rats. Newborn male rats received DEN injection at Week 2 after birth to generate NASH model. Negative control animals (Group 1, n=10) received no DEN injection. At Week 4, 50 rats that received DEN injections started HFD+CHOL diet (60 kcal % Fat+1.25% Cholesterol+0.5% cholate) for 8 weeks, while negative control animals were still on normal diet. At Week 5, DEN treated rats were randomly assigned into 5 groups (Group 2-6) based on body weight. Disease Group (Group 2, n=10), received no treatment; OCA group (Group 3, n=10) received OCA at 30 mg/kg. Group 4-6 (n=10 each) received Compound 1 at low (3 mg/kg), […], and […]. OCA and Compound 1 were given PO QD, for 7 weeks. On the day after last dose, all animals were euthanized and liver tissues were fixed with formalin for pathological evaluation.

[4] = IV 2.0 mg/kg, read-out: IV AUC 0-t
[5] = PO 10 mg/kg, read-out: PO AUC 0-t

SMILES	EC50 (hFXR-LBD-GAL4)	EC50 (human FXR protein)	PO F [1]	Vd ([1]; IV 2.0 mg/kg)	AUC(0-t) [1, 4]	clearance ([1]; IV 2.0 mg/kg)	half-life ([1]; IV 2.0 mg/kg)	Cmax ([1]; PO 10 mg/kg)	Tmax ([1]; PO 10 mg/kg)	AUC(0-t) [1, 5]	NAS score [2]	NAS score [3]
Cc1nc(Oc2cccc3cc(OCc4c(-c5c(Cl)cccc5Cl)noc4C4CC4)ccc23)ccc1C(=O)O [Compound 27, 6-((6-((5-cyclopropyl-3-(2,6-dichlorophenyl)isoxazol-4-yl)methoxy)naphthalen-1-yl)oxy)-2-methylnicotinic acid]	< 0.2 µM	< 0.05 µM	33.2%	0.897 L/kg	1.69 µg·h/mL	1.18 L/h/kg	96.6 min	2.08 µg/mL	30 min	2.79 µg·h/mL		
Cc1cc(C(=O)O)cnc1Oc1cccc2cc(OCc3c(-c4c(Cl)cccc4Cl)noc3C3CC3)ccc12 [Compound 28, 6-((6-((5-cyclopropyl-3-(2,6-dichlorophenyl)isoxazol-4-yl)methoxy)naphthalen-1-yl)oxy)-5-methylnicotinic acid]	< 0.2 µM	< 0.05 µM	29.9%	0.663 L/kg	1.18 µg·h/mL	1.7 L/h/kg	58.6 min	2.13 µg/mL	30 min	1.74 µg·h/mL		
O=C(O)c1ccc(Oc2ccc3ccc(OCc4c(-c5c(Cl)cccc5Cl)noc4C4CC4)cc3c2)nc1 [Compound 31, 6-((7-((5-cyclopropyl-3-(2,6-dichlorophenyl)isoxazol-4-yl)methoxy)naphthalen-2-yl)oxy)nicotinic acid]	< 0.2 µM	< 0.05 µM	9.74%	2.77 L/kg	0.304 µg·h/mL	6.6 L/h/kg	36.8 min	0.133 µg/mL	20 min	0.14 µg·h/mL		
O=C(O)c1ccc(Oc2ccc3c(F)c(OCc4c(-c5c(Cl)cccc5Cl)noc4C4CC4)ccc3c2)nc1 [Compound 32, 6-((6-((5-cyclopropyl-3-(2,6-dichlorophenyl)isoxazol-4-yl)methoxy)-5-fluoronaphthalen-2-yl)oxy)nicotinic acid]	< 0.2 µM	< 0.05 µM	54.7%	1.36 L/kg	1.4 µg·h/mL	1.44 L/h/kg	61.8 min	1.4 µg/mL	30 min	3.81 µg·h/mL		
O=C(O)c1ccc(F)cc1Oc1c(F)ccc2cc(OCc3c(-c4c(Cl)cccc4Cl)noc3C3CC3)ccc12 [Compound 44, 2-((6-((5-cyclopropyl-3-(2,6-dichlorophenyl)isoxazol-4-yl)methoxy)-2-fluoronaphthalen-1-yl)oxy)-4-fluorobenzoic acid]	< 0.2 µM	< 0.05 µM	23.7%	2.06 L/kg	0.559 µg·h/mL	3.62 L/h/kg	73.8 min	0.384 µg/mL	56 min	0.646 µg·h/mL		
CC[C@H]1[C@@H](O)[C@@H]2[C@H](CC[C@]3(C)[C@@H]([C@H](C)CCC(=O)O)CC[C@@H]23)[C@@]2(C)CC[C@@H](O)C[C@@H]12 [OCA, reference compound]											decrease in NAS score	decrease in NAS score

More lines, main results first:

EC50 (hFXR-LBD-GAL4)	EC50 (human FXR protein)	PO F [1]	Vd ([1]; IV 2.0 mg/kg)	AUC(0-t) [1, 4]	clearance ([1]; IV 2.0 mg/kg)	half-life ([1]; IV 2.0 mg/kg)	Cmax ([1]; PO 10 mg/kg)	Tmax ([1]; PO 10 mg/kg)	AUC(0-t) [1, 5]	SMILES	NAS score [2]	NAS score [3]
< 0.2 µM	< 0.05 µM	15.7%	1.04 L/kg	1.5 µg·h/mL	1.33 L/h/kg	84 min	0.627 µg/mL	60 min	1.14 µg·h/mL	Cc1nc(Oc2c(F)ccc3cc(OCc4c(-c5c(Cl)cccc5Cl)noc4C4CC4)ccc23)ccc1C(=O)O [Compound 45, 6-((6-((5-cyclopropyl-3-(2,6-dichlorophenyl)isoxazol-4-yl)methoxy)-2-fluoronaphthalen-1-yl)oxy)-2-methylnicotinic acid]		
< 0.2 µM	< 0.05 µM	28.6%	0.495 L/kg	1.5 µg·h/mL	1.33 L/h/kg	38.3 min	2.15 µg/mL	30 min	2.14 µg·h/mL	Cc1cc(C(=O)O)cnc1Oc1c(F)ccc2cc(OCc3c(-c4c(Cl)cccc4Cl)noc3C3CC3)ccc12 [Compound 47, 6-((6-((5-cyclopropyl-3-(2,6-dichlorophenyl)isoxazol-4-yl)methoxy)-2-fluoronaphthalen-1-yl)oxy)-5-methylnicotinic acid]		
